Test results from US5750540A, “1,4-di-substituted piperidine derivatives” (Banyu Pharmaceutical Co., Ltd., priority 1995, dated 1998).
Where two headings read alike, the source gives them in different places.

Key:
[1] = test system: muscarinic M3 receptor; test: in vivo; conditions: rat, i.v., Table 3
Experimental: (§1) Tests for antagonism against muscarinic M3 receptor (in vivo)
(§2) 1) Tests for bronchodilation in rats
(§3) Eight- to eleven-weeks-old male rats of the Sprague-Dawley strain, weighing 300-400 g, were anesthetized with urethane (750 mg/kg, i.p.) and a-chloralose (37.5 mg/kg, i.p.). A bronchus was intubated, and the right jugular vein was cannulated for drug administration. […] To evoke an increase in airway resistance, acetylcholine (50 μg/kg, i.v.) was administered to the animals. Mean values for the acetylcholine-induced increase in airway resistance as measured five minutes before (control) and five minutes after test compound administration were calculated and the results were expressed as percentages of the control response. The ID50 value was calculated from the dose-response curve of the test compound using probit analysis and defined as the drug dose that inhibited the acetylcholine-induced increase in airway resistance in the control group by 50 %.

[2] = target: T1, muscarinic M2 receptors (Rattus norvegicus, UniProt P10980); test: Bradycardia in rats (acetylcholine-induced); assay type: in vivo; conditions: iv, 5 min, i.v., 5 minutes after administration, 50% inhibition of acetylcholine-induced bradycardia, read-out: Bradycardia ID50
T1 construct: a membrane specimen from the heart was used as the membrane specimen; from tissue; host or cells: rat heart membranes (SD rat)
T1 sequence (P10980 1-466): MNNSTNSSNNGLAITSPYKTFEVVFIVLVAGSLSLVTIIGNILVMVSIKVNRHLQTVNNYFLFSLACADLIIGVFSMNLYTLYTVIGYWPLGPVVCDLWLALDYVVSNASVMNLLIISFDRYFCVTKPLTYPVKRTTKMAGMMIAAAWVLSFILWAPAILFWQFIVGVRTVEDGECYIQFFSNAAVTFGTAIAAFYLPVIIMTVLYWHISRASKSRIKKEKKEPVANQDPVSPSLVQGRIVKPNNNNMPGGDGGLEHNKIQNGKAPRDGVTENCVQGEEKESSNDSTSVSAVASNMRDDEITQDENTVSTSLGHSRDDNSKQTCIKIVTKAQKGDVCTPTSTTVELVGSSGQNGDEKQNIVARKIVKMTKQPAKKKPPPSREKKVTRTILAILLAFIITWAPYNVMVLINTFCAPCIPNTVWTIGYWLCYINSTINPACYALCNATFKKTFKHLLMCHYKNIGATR
Experimental: 6) Tests for bradycardia in rats
Eight- to eleven-weeks-old male rats of the Sprague-Dawley strain, weighing 300-400 g, were anesthetized with urethane (750 mg/kg, i.p.) and α-chloralose (37.5 mg/kg, i.p.). A bronchus was intubated, and the right jugular vein was cannulated for drug administration. […] To evoke bradycardia, acetylcholine (50 μg/kg, i.v.) was administered to the animals. Mean values for the acetylcholine-induced decrease in heart rate as measured five minutes before (control) and five minutes after test compound administration were calculated and the results were expressed as percentages relative to the control response. The ID50 value was calculated from the dose-response curve of the test compound using probit analysis and defined as the drug dose that inhibited the acetylcholine-induced bradycardia in the control group by 50%.

[3] = target: T2, muscarinic M3 receptor (Rattus norvegicus, UniProt P08483); test: Intravesical bladder pressure in rats; assay type: in vivo; set-up: from tissue; conditions: i.v., 25% inhibition of peak intravesical bladder pressure
Experimental: as §1
4) Tests for intravesical bladder pressure in rats
These tests were performed according to the method of Maggi et al. (Drug Dev. Res. 10: 157-170, 1987). Briefly, eight- to ten-weeks-old male rats of the Sprague-Dawley strain, weighing 330-370 g, were anesthetized by subcutaneous administration of urethane (1 g/kg) and α-chloralose (50 mg/kg), and the right jugular vein was cannulated for drug administration. The body temperature was kept constant by means of a heating pad maintained at 37° C. Through a midline incision of the abdomen, the urinary bladder was exposed and emptied of urine by the application of a slight manual pressure. A 20-gauge needle was inserted through the apex of the bladder dome by 3-4 mm into its lumen. The needle had previously been connected to a pressure transducer and an infusion pump by means of polyethylene tubing and the whole system filled with saline. After a 30-minutes equilibration period at zero volume, saline was infused (2.8 ml/hr) until a coordinated sustained contraction, reflecting the peak intravesical bladder pressure, occured. The bladder was then emptied manually and allowed to rest for five minutes. PvesP was defined as the difference between the maximum and resting bladder pressures. This procedure was repeated at least five times and the evaluation of a test compound was carried out in the animals in which a stable peak intravesical bladder pressure was recorded. The drug potency (ID25 ) was determined after intravenous administration of the test compound during the rest period. Five minutes after drug administration, the infusion of saline was started to induce micturition contraction and the peak intravesical bladder pressure was recorded. The depression in peak intravesical bladder pressure was expressed as a percent of the control peak intravesical bladder pressure observed before administration of the test compound. The ID25 value, calculated by probit analysis, was defined as the drug dose that inhibited the control peak intravesical bladder pressure by 25%.

[4] = target: T2, muscarinic M3 receptor; test: Intestinal propulsion in rats (charcoal meal); assay type: in vivo; set-up: from tissue; conditions: i.v., 15% inhibition of intestinal propulsion
Experimental: as §1
5) Tests for intestinal propulsion in rats
Five- to seven-weeks-old male rats of the Sprague-Dawley strain were fasted overnight. A test compound was administered intravenously to the animals. Five minutes later, 1 ml per animal of a 5% charcoal suspension was administered orally. Thirty minutes after administration of the charcoal meal, the rats were sacrificed by decapitation, and the gastrointestinal tract was removed. The distance from the pylorus to the point of arrival of the charcoal meal was measured and the transportation rate was calculated. The ID15 value was calculated from the dose-response curve using probit analysis and defined as the drug dose that inhibited intestinal propulsion in the control group by 15%.

[5] = target: T2, muscarinic M3 receptor; test: in vivo; set-up: from tissue; host or cells: living rat, airways; conditions: iv, 5 min, read-out: Airway contraction ID50
Experimental: as §1, §2, §3

[6] = target: T2, muscarinic M3 receptor; test: in vivo; set-up: from tissue; host or cells: living rat, airways; conditions: iv, read-out: Salivary secretion ID50
Experimental: as §1
2) Tests for salivary secretion in rats
Five- to seven-weeks-old male rats of the Sprague-Dawley strain were anesthetized with sodium pentobarbital (65 mg/kg, i.p.), and a cannula was inserted into the right jugular vein for purposes of drug administration. A test compound was administered intravenously. Five minutes later, carbachol (10 μg/kg, i.v.) was administered to evoke salivary secretion. For each rat, saliva collection was started immediately after carbachol administration and continued for ten minutes. This was carried out by inserting glass capillaries (Drummond, 100 μl) into the oral cavity of the rat at intervals of one minute. The amount of collected saliva was determined on the assumption that a length of 75 mm of the glass capillary corresponded to 100 μl. Physiological saline was used in the control group. The ID50 value was calculated from the dose-response curve of the test compound using probit analysis and defined as the drug dose that inhibited the carbachol-induced salivation in the control group by 50%.

[7] = target: T2, muscarinic M3 receptor; test: in vivo; set-up: from tissue; host or cells: living rat, airways; conditions: iv, read-out: Mydriasis ED50
Experimental: as §1
3) Tests for mydriasis in rats
Five- to seven-weeks-old male rats of the Sprague-Dawley strain were anesthetized with pentobarbital (65 mg/kg, i.p.), and a cannula was inserted into the right jugular vein for purposes of drug administration. By using a graduated scale (pulilometer), pupillary responses to drugs were measured to the nearest 0.1 mm at the point of the greatest diameter. […] Responses were expressed as percentages of the maximal increase in pupil diameter induced by administration of atropine (30 μg/kg, i.v.). The ED50 value was calculated from the dose-response curve of the test compound using probit analysis and defined as the drug dose that induced 50% of the maximal response.

T2 sequence (P08483 whole entry): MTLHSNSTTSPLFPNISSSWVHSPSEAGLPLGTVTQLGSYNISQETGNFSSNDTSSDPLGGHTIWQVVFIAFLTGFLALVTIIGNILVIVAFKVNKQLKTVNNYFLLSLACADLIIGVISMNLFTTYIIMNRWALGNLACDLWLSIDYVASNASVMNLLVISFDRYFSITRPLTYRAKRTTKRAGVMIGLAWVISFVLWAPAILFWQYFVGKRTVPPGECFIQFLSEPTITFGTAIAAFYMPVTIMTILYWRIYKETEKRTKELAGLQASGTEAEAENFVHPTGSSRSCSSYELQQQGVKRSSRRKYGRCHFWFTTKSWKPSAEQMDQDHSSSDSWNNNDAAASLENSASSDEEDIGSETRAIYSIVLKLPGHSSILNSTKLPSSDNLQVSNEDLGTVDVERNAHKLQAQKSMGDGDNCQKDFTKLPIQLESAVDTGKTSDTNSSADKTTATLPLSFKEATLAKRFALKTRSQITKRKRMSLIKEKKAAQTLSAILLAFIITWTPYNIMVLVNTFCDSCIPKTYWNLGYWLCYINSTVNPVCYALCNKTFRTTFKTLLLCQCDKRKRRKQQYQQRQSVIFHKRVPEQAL

Compound	Activity with respect to all of the six types of responses (in words) [1]	Selectivity over the six types of responses (in words) [1]	ED50 [2]	Urinating contraction ID25 [3]	Enterokinesis ID15 [4]	ED50 [5]	ED50 [6]	ED50 [7]
CN1[C@@H]2CC[C@H]1C[C@@H](OC(=O)C(CO)c1ccccc1)C2 (stereo partly shown) [Atropine]	potent activities	non-selective	3.7 µg/kg	0.027 mg/kg i.v.	0.019 mg/kg i.v.	4.3 µg/kg	2.2 µg/kg	18 µg/kg
CC(C)[N+]1(C)[C@@H]2CC[C@H]1C[C@@H](OC(=O)C(CO)c1ccccc1)C2 (stereo partly shown) [Ipratropium]	potent activities	non-selective	1.8 µg/kg	0.0048 mg/kg i.v.	0.004 mg/kg i.v.	1.5 µg/kg	1.8 µg/kg	4.1 µg/kg
